Source: patent US12491191B2, “Inhibition of interaction between OCT4 and MAPKAPK2 or DNA-PKcs to regulate c-MYC in cancer” (Texas Tech University System, priority 2019, dated 2025)

How the values were obtained:
[1] = tested on: LHN-R, CHLA-20, COG-N-289, COG-N-334, COG-N-415 cells; experiment: MK2 inhibitor effect on pOCT4, c-MYC, Cyclin A in neuroblastoma cell lines; type: cell-based, human
Protocol: FIGS. 8A-8H show higher pMK2 and pOCT4^S111 in PD with high c-MYC. […] CHLA-20 was used as the control for the two membranes. […] The values were normalized in two ways by the expression of specific proteins in CHLA-20 and GAPDH. […] The expression of pOCT4^S111, OCT4, c-MYC, and Cyclin A was evaluated in subcellular fractions. […] The cells transduced with a doxycycline-inducible system to exogenously express OCT4WT or OCT4 S111A mutant, treated with doxycycline (Dox) for 48h followed by cycloheximide (CHX) incubation for various times. The whole cell lysates were subjected to sill immunoblotting.
Thus, pMK2-mediated increased c-MYC expression is not limited to tumors exposed to 13-cisRA. When S111 residue of OCT4 was mutated pOCT4^S111 were not detected by immunoblotting (FIG. 8G). […] MK2 inhibition by a small molecule MK2 inhibitor results in decreased pOCT4.

MOLM-14 and NB4 cells = experiment: c-MYC expression and apoptosis in MOLM-14 and NB4; type: cell-based, human; details: 24 hours, 100 to 200 nM
Text: FIG. 17 provides data illustrating the effect of D8 (narciclasine) in the expression of c-MYC and apoptosis in two human acute myelogenous leukemia, MOLM-14 and NB4.
Of the six cell lines, two cell lines (MOLM-14 and NB4) were used to test the effect of narciclasine in c-MYC expression.

NCI-H1048 xenograft = experiment: In vivo xenograft activity, NCI-H1048; design: species or system mice
Text: FIGS. 13A-13I show in vivo xenograft activity of M3814, a DNA-PK inhibitor, and ABT-263, a BCL-2 inhibitor, in mice carrying H1048, a human small cell lung cancer cell line.
FIGS. 14A-14I show in vivo xenograft activity of D8 (narciclasine), a DNA-PK interaction inhibitor, and ABT-199, a BCL-2 inhibitor, in mice carrying H1048, a human small cell lung cancer cell line.
In vivo xenograft activity was examined for narciclasine or M3814 in combination with ABT-263 or ABT-199 in two xenograft models of small cell lung cancer, NCI-H1048 and NCI-H847.

NCI-H847 xenograft = experiment: In vivo xenograft activity, NCI-H847; details: NCI-H847 xenograft mice
Text: FIGS. […]
In NCI-H847 xenograft mice, narciclasine as a single agent extended the event-free survival of mice compared with vehicle control.

NCI-H1048 cell line = experiment: Combination cytotoxicity with ABT-737 in NCI-H1048; type: cell-based, human; details: combined with ABT-737, narciclasine 10 and 20 nM
Protocol: (§1) FIGS. 12A-12F illustrate the combination cytotoxic activity of D8 (i.e., narciclasine) and ABT-737 (a BCL-2 inhibitor) in two small cell lung cancer cell lines. The effect of the combination on c-MYC, pOCT4, OCT4, cyclin A, BCL-2 family of proteins, the cleavage of and caspase-3 and PARP were evaluated.
(§2) Next, Applicants sought to check the activity of narciclasine when combined with other active agents. Venetoclax is currently indicated for chronic lymphocytic leukemia (CLL) and small lymphocytic lymphoma (SLL) patients. […] Thus, Applicants combined narciclasine with ABT-737/ABT-263, pan BCL-2 inhibitors or venetoclax (also known as ABT-199, a BCL-2 inhibitor) to examine the effect of the combination.

[2] = tested on: small cell lung cancer cell lines; experiment: Effect of combination with ABT-737 on c-MYC, cyclin A, PARP and caspase 3; type: cell-based, human; details: combined with ABT-737
Protocol: as §1, §2

NCI-H847 cell line = experiment: Combination cytotoxicity with ABT-737 in NCI-H847; type: cell-based, human; details: combined with ABT-737, narciclasine 10 and 20 nM
Protocol: as §1, §2

[3] = tested on: small cell lung cancer cell lines; experiment: Cytotoxicity in 16 small cell lung cancer cell lines; type: cell-based, human
Text: FIGS. 10A-10E show cytotoxicity of D8 (i.e., narciclasine) and several DNA-PK inhibitors (NU7441, M3814, CC-115, AZD7648) in 16 small cell lung cancer cell lines with high (black and gray bars) or low (white bars) c-MYC expression.
In this Example, Applicants examined the cytotoxic activity of narciclasine (i.e., D8) in comparison to DNA-PK inhibitors that are commercially available (including NU7441, M3814, CC-115, and AZD7648) in 16 small cell lung cancer cell lines. […] The IC50 values for narciclasine was less than 100 nM in all cell lines except NCI-H889.

[4] = tested on: NCI-H82, NCI-H847, NCI-H889, NCI-H417 cells; experiment: c-MYC, pOCT4S93 and apoptosis markers in small cell lung cancer cell lines; type: cell-based, human; details: 0.3 to 2.5 μM, compared to vehicle control
Protocol: FIG. 11 illustrates the effect of narciclasine in c-MYC protein expression. Narciclasine's effect on pOCT4S93 and OCT4 as well as apoptosis (measured by caspase and PARP cleavage) are also assessed in four small cell lung cancer cell lines with high c-MYC expression.
Compared to vehicle control, narciclasine reduced c-MYC and pOCT4S93 and cleaved PARP and caspase 3 in four small cell lung cancer cell lines (NCI-H82, NCI-H847, NCI-H889, NCI-H417) at the concentration range between 0.3 and 2.5 μM. These experimental results, which are summarized in FIG. 11, indicate that narciclasine induces apoptosis as a cell death mechanism in small cell lung cancer cells.

SMS-LHN (LHN) cells = experiment: 13-cisRA response of SMS-LHN neuroblastoma cells; type: cell-based, human; details: 5 μM, initial response
Text: (§3) FIGS. 4A and 4B provide data showing that protein expression of c-MYC and MYCN in patient-derived neuroblastoma cell lines established from clinical samples collected at diagnosis (Dx) (FIG. 4A) and progressive disease 5 (PD) (FIG. 4B). CHLA-20 and SK—N-BE(2) were used as the positive controls for c-MYC and MYCN. FIG. 4C1 and FIG. 4C2 show dot plots quantitating immunoblotting (IB) data in FIGS. 4A and 4B. The values were normalized in two ways by the intensity of specific proteins in CHLA-20 for c-MYC or SK—N-BE(2) for MYCN and GAPDH. […] Cells were treated with 5 μM 13-cisRA for 14 days. […] Triplicate samples of 10,000 events were collected as single cells for the analyses. […] Relative quantitation (2^−ΔΔCT) was used for the analyses of mRNA expression. […] LDH (cytosolic protein) and Lamin A/C (nuclear protein) were used as fractionation quality controls.
To determine whether increased c-MYC in PD cell lines might be due to 13-cisRA treatment, the SMS-LHN (LHN) human neuroblastoma cell line (MYCN expression without genomic amplification) was treated with a clinically achievable concentration of 13-cisRA (5 μM), following the clinical dosing schedule used in high-risk patients (2 wks on, 2 wks off, x 6 cycles).

LHN-R cells = experiment: 13-cisRA response (neurite outgrowth, cell cycle) of resistant LHN-R cells; type: cell-based, human
Text: as §3
MetLuc enzymatic activity was measured. CMV immediate early promoter (pCMV IE) was a positive control. […] Left: Locations of the four sets of amplicons (a, b, c, and d) used to detect ChIP-enriched DNA fragments in the MYC enhancer region shown relative to the transcription start site (arrow). Right: PCR results detecting enriched fragments from ChIP assays of each of the 4 amplicons using ChIP-grade OCT4-1 and OCT4-2 antibodies or control normal rabbit IgG antibody. […] Cells were imaged by confocal microscopy. Blue: DAPI stained nucleus, Green: Phalloidin.
FIGS. 6A-6G show OCT4 interacting proteins by protein identification (ID) and post-translational modification (PTM) and verification of the protein expression and the role of the interacting MK2 protein in 13-cisRA resistance. […] M: Marker, C: cytosolic, N: nuclear. For protein ID, the entire lanes were analyzed, and for PTM, the specific OCT4 band was subjected to mass spectrometry analyses. (Right) OCT4 protein sequence with PTM status identified by mass spectrometry. Underline: mass spectrometry coverage, Green: not phosphorylated or acetylated, Red: phosphorylated, acetylated, or undetermined. […] The direct interaction between OCT4 and MK2 is also confirmed by Ni-NTA pull down (Middle) or immunoprecipitation by FLAG (Right) using purified proteins. […] Cells stably transduced with non-targeting NT-shRNA or MAPKAPK2-shRNA were treated with vehicle control or 13-cisRA for 14 days. […] Cells stably transduced with non-targeting NT-shRNA or MAPKAPK2-shRNA were treated with vehicle control or 13-cisRA for 14 days. […] Cells stably transduced with non-targeting NT-shRNA (20±2% vs 18±3%, 15 p=0.17) or MAPKAPK2-shRNA (19±4% vs 5±1%, p<0.01) were treated with vehicle control or 13-cisRA for 14 days.
In LHN-R treated with 13-cisRA, mRNA and protein expression of c-MYC was increased while MYCN remained suppressed (FIGS. 4F and 4G).
Thus, Applicants focused on OCT4 and generated a stable clone of LHN-R with POU5F1 knockdown using a lentiviral vector system by transducing five different short hairpin RNA sequences (POU5F1-shRNA-1 to -5) to evaluate the effect of OCT4 on 13-cisRA resistance in neuroblastoma cells. POU5F1 knockdown decreased c-MYC and Cyclin A protein expression in LHN-R cells (FIG. 5G) relative to a non-targeted control shRNA (NT-shRNA).

[5] = single agent, compared with control, NCI-H1048 xenografted mice

Which “pOCT4, OCT4S111, c-MYC and Cyclin A” value [1] does the source give for `Cc1ccc(-c2ccc3c(ccc4sc5c(c43)NC[C@@H](C)NC5=O)n2)cn1` [PF3644022] here?
Its value is “decreased”.

What does the source list for `O=C1N[C@@H]2C(=C[C@H](O)[C@@H](O)[C@H]2O)c2cc3c(c(O)c21)OCO3` [narciclasine]?
PARP and caspase 3 cleavage (MOLM-14 and NB4 cells): observed; c-MYC expression (MOLM-14 and NB4 cells): substantially decreased; event-free survival (NCI-H1048 xenograft; combined with ABT-199, NCI-H1048 xenografted mice): significantly extended; event-free survival (NCI-H1048 xenograft; [5]): did not affect; event-free survival (NCI-H847 xenograft; combination with ABT-199, compared with the single agents): significantly longer; event-free survival (NCI-H847 xenograft; single agent, compared with vehicle control): extended; combination cytotoxic activity (NCI-H1048 cell line): synergistic cytotoxic activity; c-MYC downregulation effect and cyclin A suppression effect [2]: higher; combination cytotoxic activity (NCI-H847 cell line): synergistic cytotoxic activity; IC50 ([3]; all of 16 small cell lung cancer cell lines except NCI-H889): < 100 nM; potency in cytotoxicity relative to the agents tested ([3]; compared with NU7441, M3814, CC-115, AZD7648): highest potency; PARP and caspase 3 cleavage [4]: cleaved; c-MYC and pOCT4S93 expression [4]: reduced

What does the source list for `COc1ccc([C@@H](O)c2cc(-c3ncnc4cc(N5CCOCC5)ccc34)c(F)cc2Cl)nn1` [M3814, alpha S-[2-chloro-4-fluoro-5-[7-(4-morpholinyl)-4-quinazolinyl]phenyl]-6-methoxy-3-pyridazinem ethano, reference compound]?
event-free survival (NCI-H1048 xenograft; combined with ABT-263, NCI-H1048 xenografted mice): significantly extended; event-free survival (NCI-H1048 xenograft; [5]): did not affect; c-MYC downregulation effect and cyclin A suppression effect [2]: higher

With `CC1=C(/C=C/C(C)=C/C=C/C(C)=C\C(=O)O)C(C)(C)CCC1` [13-cisRA, 13-cis-retinoic acid] as the molecule, how does the “response to 13-cisRA” value (SMS-LHN (LHN) cells) read?
Its value is “arrested proliferation, neurite outgrowth and decreased MYCN protein”.

What about the “neurite outgrowth and cell cycle arrest” value (LHN-R cells; LHN-R after six cycles, 10 days of 13-cisRA treatment) of the same molecule?
Its value is “did not show”.

What about the “cell cycle analysis (FIG. 6G)” value (LHN-R cells; MAPKAPK2-shRNA LHN-R, 13-cisRA 14 days (vehicle 19±4%)) of the same molecule?
Its value is 5±1%.

And the “cell cycle analysis (FIG. 6G)” value (LHN-R cells; NT-shRNA LHN-R, 13-cisRA 14 days (vehicle 20±2%))?
Its value is 18±3%.

What about the S-phase content (LHN-R cells; NT-shRNA-transduced LHN-R, 13-cisRA 14 days (vehicle 26±3%)) of the same molecule?
The S-phase content was 28±5%.

What about the S-phase content (LHN-R cells; POU5F1 knockdown LHN-R, 13-cisRA 14 days (vehicle 23±4%)) of the same molecule?
Its S-phase content is 11±1%.
